Test results published in publication PMC6270026, “Antibacterial and Herbicidal Activity of Ring-Substituted 2-Hydroxynaphthalene-1-carboxanilides” (Molecules, 2013).
≈ marks a conversion by molar mass, not a printed value. Where “and” joins values, the source holds several entries; their conditions need not be identical. Equal values may be shown once.

How the values were obtained:
[1] = system: Mycobacterium marinum CAMP 5644; assay: In vitro antimycobacterial evaluation (broth dilution MIC); assay type: cell-based; details: for MIC: Mycobacterium marinum, CAMP5644, 504 h, M. marinum CAMP 5644, 21 days, 28 °C
M. kansasii DSM 44162 = assay: as above; assay type: cell-based; details: Mycobacterium kansasii, DSM44162, 168 h; M. kansasii DSM 44162, 7 days, 37 °C
[2] = Lipophilicity determination by RP-HPLC (capacity factor log k); assay type: physicochemical; details: isocratic, MeOH 60%/H2O 40%, C18
Method: A HPLC system Agilent 1200 equipped with DAD detector (Agilent, Santa Clara, CA, USA) was used. A chromatographic column Symmetry® C18 5 μm, 4.6 × 250 mm, Part No. WAT054275, (Waters Corp., Milford, MA, USA) was used. The HPLC separation process was monitored and evaluated by EZChrom Elite software ver. 3.3.2 (Agilent). Isocratic elution by a mixture of MeOH p.a. (60%) and H2O-HPLC Mili-Q grade (40%) as a mobile phase was used. The total flow of the column was 1.0 mL/min, injection 20 μL, column temperature 40 °C and sample temperature 10 °C. The detection wavelength 210 nm was chosen. The KI methanolic solution was used for the dead time (tD) determination. Retention times (tR) were measured in minutes. The capacity factors k were calculated according to formula k = (tR − tD)/tD, where tR is the retention time of the solute, whereas tD denotes the dead time obtained using an unretained analyte. Log k, calculated from the capacity factor k, is used as the lipophilicity index converted to log P scale.

[3] = system: Mycobacterium avium subsp. paratuberculosis (CIT03); assay: In vitro antimycobacterial evaluation (alamarBlue MIC); assay type: cell-based; details: 264 h, M. avium paratuberculosis CIT03, 11 days, 37 °C
Method: A well characterised clinical isolate of Mycobacterium avium subsp. paratuberculosis (CIT03) was grown in Middlebrook broth (MB), supplemented with Oleic-Albumin-Dextrose-Catalase supplement (OADC, Becton, Dickinson & Comp., Franklin Lakes, NJ, USA) and mycobactin J (2 µg/mL). Identification of this isolate was performed using biochemical and molecular protocols. At log phase growth, a culture sample (10 mL) was centrifuged at 15,000 rpm/20 min using a bench top centrifuge (Model CR 4-12, Jouan Inc., Winchester, VA, USA). Following removal of the supernatant, the pellet was washed in fresh Middlebrook 7H9GC broth and re-suspended in fresh supplemented MB (10 mL). The turbidity was adjusted to match McFarland standard No. 1 (3 × 10^8 cfu) with MB broth. A further 1:20 dilution of the culture was then performed in MB broth. The antimicrobial susceptibility of the mycobacterial species was investigated in a 96-well plate format. In these experiments, sterile deionised water (300 µL) was added to all outer-perimeter wells of the plates to minimize evaporation of the medium in the test wells during incubation. Each evaluated compound (100 µL) was incubated with each of the mycobacterial species (100 µL). Dilutions of each compound were prepared in duplicate. For all synthesized compounds, final concentrations ranged from 1,000 µg/mL to 8 µg/mL. All compounds were prepared in DMSO and subsequent dilutions were made in supplemented MB. The plates were sealed with parafilm and incubated at 37 °C, for 11 days in the case of M. avium paratuberculosis. Following incubation, a 10% addition of alamarBlue (AbD Serotec, Kidlington, UK) was mixed into each well and readings at 570 nm and 600 nm were taken, initially for background subtraction and subsequently after 24 h re-incubation. The background subtraction is necessary for strongly coloured compounds, where the colour may interfere with the interpretation of any colour change. For non-interfering compounds, a blue colour in the well was interpreted as an absence of growth and a pink colour was scored as growth. The minimum inhibitory concentrations (MICs) were initially defined as the lowest concentration which prevented a visual colour change from blue to pink.
The MICs were defined as the lowest concentration of the compound at which no visible bacterial growth was observed. The MIC value is routinely and widely used in bacterial assays and is a standard detection limit according to the Clinical and Laboratory Standards Institute (CLSI). Isoniazid (Sigma-Aldrich) was used as reference antimycobacterial drug.

[4] = system: photosynthetic electron transport (PET) in spinach chloroplasts; assay: Inhibition of photosynthetic electron transport (PET) in spinach chloroplasts; assay type: biochemical, Spinacia oleracea L.; details: DCPIP photoreduction
Method: Chloroplasts were prepared from spinach (Spinacia oleracea L.) according to Masarovicova and Kralova. The inhibition of photosynthetic electron transport (PET) in spinach chloroplasts was determined spectrophotometrically (Genesys 6, Thermo Electron Scientific Instruments, Madison, WI, USA), using an artificial electron acceptor 2,6-dichlorophenol-indophenol (DCPIP) according to Kralova et al., and the rate of photosynthetic electron transport was monitored as a photoreduction of DCPIP. The measurements were carried out in phosphate buffer (0.02 mol/L, pH 7.2) containing sucrose (0.4 mol/L), MgCl2 (0.005 mol/L) and NaCl (0.015 mol/L). The chlorophyll content was 30 mg/L in these experiments and the samples were irradiated (~100 W/m^2 with 10 cm distance) with a halogen lamp (250 W) using a 4 cm water filter to prevent warming of the samples (suspension temperature 22 °C). The studied compounds were dissolved in DMSO due to their limited water solubility. […] The inhibitory efficiency of the studied compounds was expressed by IC50 values, i.e., by molar concentration of the compounds causing 50% decrease in the oxygen evolution rate relative to the untreated control.

M. smegmatis ATCC 700084 = assay: In vitro antimycobacterial evaluation (broth dilution MIC); assay type: cell-based, Mycobacterium smegmatis; details: Mycolicibacterium smegmatis, ATCC700084, 72 h; M. smegmatis ATCC 700084, 3 days, 37 °C
[5] = system: methicillin-resistant Staphylococcus aureus (MRSA) 63718; assay: In vitro antibacterial susceptibility testing (broth dilution MIC); assay type: cell-based; details: clinical isolate MRSA 63718, 24 h, 37 °C
Method: (§1) The synthesized compounds were evaluated for in vitro antibacterial activity against representatives of multidrug-resistant bacteria, clinical isolates of methicillin-resistant Staphylococcus aureus (MRSA) 63718, SA 630 and SA 3202 that were obtained from the National Institute of Public Health, Prague, Czech Republic. Staphylococcus aureus ATCC 29213 was used as a reference and quality control strain. Ampicillin (Sigma-Aldrich) was used as the standard. Prior to testing, each strain was passaged onto nutrient agar (Oxoid, Hampshire, UK) with 5% of bovine blood, and bacterial inocula were prepared by suspending a small portion of bacterial colony in sterile phosphate buffered saline (pH 7.2–7.3). The cell density was adjusted to 0.5 McFarland units using a densitometer (Densi-La-Meter, LIAP, Riga, Latvia). The final inoculum was made by 1:20 dilution of the suspension with the Mueller-Hinton broth (MH broth). […] The final concentrations of the evaluated compounds ranging from 256 μg/mL to 0.008 μg/mL. The broth dilution micro-method modified according to NCCLS guidelines in MH broth was used to determine the minimum inhibitory concentration (MIC). Drug-free controls, sterility controls and controls consisted of MH broth and DMSO alone were included. The determination of results was performed visually after 24 h of static incubation in the darkness at 37 °C in an aerobic atmosphere. The MICs were defined as the lowest concentration of the compound at which no visible bacterial growth was observed.

[6] = system: Staphylococcus aureus ATCC 29213; assay: as above; assay type: cell-based; details: ATCC29213; Staphylococcus aureus ATCC 29213, 24 h, 37 °C
Method: as §1

[7] = system: methicillin-resistant Staphylococcus aureus SA 630; assay: as above; assay type: cell-based; details: MRSA, clinical isolate SA 630, 24 h, 37 °C
Method: as §1

[8] = system: methicillin-resistant Staphylococcus aureus SA 3202; assay: as above; assay type: cell-based; details: MRSA, clinical isolate SA 3202, 24 h, 37 °C, read-out: MIC MRSA 3202
Method: as §1

Row | SMILES | MIC [1] | MIC (M. kansasii DSM 44162) | log k [2] | MIC [3] | IC50 [4] | MIC (M. smegmatis ATCC 700084) | MIC [5] | MIC [6] | MIC [7] | MIC [8] | fold higher activity against M. marinum than isoniazid ([1]; ratio of MIC to isoniazid)
1 | COc1ccc(NC(=O)c2c(O)ccc3ccccc23)cc1 [Compound 2c, 2-Hydroxy-N-(4-methoxyphenyl)naphthalene-1-carboxamide] | 109 µM (≈ 32 µg/mL) | 218 µM (≈ 63.9 µg/mL) | 0.6342 | 852 µM (≈ 250 µg/mL) |  |  |  |  |  |  | 
2 | O=C(Nc1ccc(Cl)cc1)c1c(O)ccc2ccccc12 [Compound 5c, N-(4-chlorophenyl)-2-hydroxynaphthalene-1-carboxamide] | > 860 µM | 53.7 µM (≈ 16 µg/mL) | 0.7908 | 420 µM (≈ 125 µg/mL) | 59.2 µM | > 860 µM | > 860 µM | 215 µM (≈ 64 µg/mL) | > 860 µM | 107 µM (≈ 31.9 µg/mL) | 
3 | Cc1cccc(NC(=O)c2c(O)ccc3ccccc23)c1 [Compound 3b, 2-Hydroxy-N-(3-methylphenyl)naphthalene-1-carboxamide] | 231 µM (≈ 64.1 µg/mL) | 115 µM (≈ 31.9 µg/mL) | 0.4593 | 451 µM (≈ 125 µg/mL) | 372 µM | 231 µM (≈ 64.1 µg/mL) |  | 231 µM (≈ 64.1 µg/mL) | 231 µM (≈ 64.1 µg/mL) | 231 µM (≈ 64.1 µg/mL) | 
4 | O=C(Nc1ccccc1Br)c1c(O)ccc2ccccc12 [Compound 6a, N-(2-bromophenyl)-2-hydroxynaphthalene-1-carboxamide] | > 748 µM | 93.5 µM (≈ 32 µg/mL) | 0.9509 | 731 µM (≈ 250 µg/mL) | 52.2 µM | > 748 µM | > 748 µM | > 748 µM | > 748 µM | > 748 µM | 
5 | O=C(Nc1ccc(F)cc1)c1c(O)ccc2ccccc12 [Compound 4c, N-(4-fluorophenyl)-2-hydroxynaphthalene-1-carboxamide] | > 910 µM | > 910 µM | 0.5568 | > 889 µM | 313 µM | > 910 µM | > 910 µM | > 910 µM | > 910 µM | > 910 µM | 
6 | CC1(C)S[C@@H]2[C@H](NC(=O)[C@H](N)c3ccccc3)C(=O)N2[C@H]1C(=O)O [APC, ampicillin, reference compound] |  |  | 0.4337 |  |  |  | > 45.8 µM | 5.7 µM (≈ 1.99 µg/mL) | > 45.8 µM | > 45.8 µM | 
7 | Cc1ccccc1NC(=O)c1c(O)ccc2ccccc12 [Compound 3a, 2-Hydroxy-N-(2-methylphenyl)naphthalene-1-carboxamide] | 231 µM (≈ 64.1 µg/mL) | 115 µM (≈ 31.9 µg/mL) | 0.7962 | 451 µM (≈ 125 µg/mL) | 586 µM |  |  |  |  |  | 
8 | CN(C)C(=O)Nc1ccc(Cl)c(Cl)c1 [DCMU, 3-(3,4-dichlorophenyl)-1,1-dimethylurea, reference compound] |  |  | 0.8801 |  | ~1.9 µM and 1.9 µM |  |  |  |  |  | 
9 | O=C(Nc1ccc([N+](=O)[O-])cc1)c1c(O)ccc2ccccc12 [Compound 8c, 2-Hydroxy-N-(4-nitrophenyl)naphthalene-1-carboxamide] | ~52 µM (≈ 16 µg/mL) | 415 µM (≈ 128 µg/mL) | 0.6260 | 811 µM (≈ 250 µg/mL) | 37.5 µM |  |  |  |  | 104 µM (≈ 32.1 µg/mL) | about 9 fold
10 | COc1cccc(NC(=O)c2c(O)ccc3ccccc23)c1 [Compound 2b, 2-Hydroxy-N-(3-methoxyphenyl)naphthalene-1-carboxamide] | 218 µM (≈ 63.9 µg/mL) | 109 µM (≈ 32 µg/mL) | 0.6582 | 426 µM (≈ 125 µg/mL) | 681 µM | 218 µM (≈ 63.9 µg/mL) |  |  |  | 218 µM (≈ 63.9 µg/mL) | 
11 | NNC(=O)c1ccncc1 [INH, isoniazid, reference compound] | 467 µM (≈ 64 µg/mL) |  | 0.0141 | > 1820 µM |  |  |  |  |  |  | 
12 | Cc1ccc(NC(=O)c2c(O)ccc3ccccc23)cc1 [Compound 3c, 2-Hydroxy-N-(4-methylphenyl)naphthalene-1-carboxamide] | 115 µM (≈ 31.9 µg/mL) | 115 µM (≈ 31.9 µg/mL) | 0.3751 | 451 µM (≈ 125 µg/mL) | 874 µM |  |  | 231 µM (≈ 64.1 µg/mL) |  |  | 
